Data on eleven compounds can be found in PubChem BioAssay (NCI).

Among the test systems are HCT-15 colon; IGROV1 ovarian; MCF7 breast; OVCAR-3 ovarian; RPMI-8226 leukemia; SF-539 CNS; SK-MEL-2 melanoma; SR leukemia; UACC-257 melanoma; MOLT-4 leukemia.
Holding throughout (assay): DTP human tumour cell line panel, 48 h

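These data come from cells grown in 96-well plates and exposed to compound for 48 hours at five concentrations. Here, GI50 denotes the concentration required for 50% inhibition of growth. TGI denotes the concentration required for complete inhibition of growth.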

Consider `O=S1(=O)CCN(Cc2ccccn2)CC1`, for which the total growth inhibition concentration (TGI) is > 100 µM in the test on HCT-15 colon; > 100 µM with IGROV1 ovarian; > 100 µM with MCF7 breast; 9.94 µM with OVCAR-3 ovarian; > 100 µM in the test with RPMI-8226 leukemia; > 100 µM in the test on SF-539 CNS. Moreover, the TGI in the test on SK-MEL-2 melanoma, with SR leukemia and in the test with UACC-257 melanoma was > 100 µM in each case.
On to `O=c1c2ccc3cccc4c(=O)cc(c5ccccc15)-c2c34`, for which the total growth inhibition concentration (TGI) with HCT-15 colon, with IGROV1 ovarian, in the test on MOLT-4 leukemia, in the test on OVCAR-3 ovarian, in the test on SK-MEL-2 melanoma and in the test with SR leukemia was > 100 µM throughout. Also, in the test on UACC-257 melanoma, the TGI is > 100 µM.
`COC(CCP(=O)(c1ccccc1)c1ccccc1)(C(=O)c1ccccc1)c1ccccc1` (stereo not given): the GI50 with HCT-15 colon is 3.19 µM; in the test on IGROV1 ovarian, 8.06 µM; in the test with MCF7 breast it was 2.39 µM; with MOLT-4 leukemia, 2.06 µM; in the test with OVCAR-3 ovarian, 5.26 µM; in the test with RPMI-8226 leukemia, 0.433 µM. Besides, the GI50 in the test on SF-539 CNS is 10.2 µM; with SR leukemia, 0.967 µM; in the test with UACC-257 melanoma, 3.11 µM. For the same compound, the TGI was 13.6 µM with HCT-15 colon; 25.4 µM with IGROV1 ovarian; 11.3 µM in the test with MCF7 breast; > 100 µM in the test on MOLT-4 leukemia; 18.2 µM with OVCAR-3 ovarian; 2.6 µM in the test on RPMI-8226 leukemia. Further, the concentration for total growth inhibition (TGI) in the test on SF-539 CNS was 21.9 µM; in the test on SR leukemia, > 100 µM; in the test with UACC-257 melanoma, 11.8 µM.
`O=C(O)/C(=C/c1ccccc1[N+](=O)[O-])c1ccccc1`: the concentration for total growth inhibition (TGI) in the test on HCT-15 colon, with IGROV1 ovarian, in the test with MOLT-4 leukemia, with OVCAR-3 ovarian, in the test on RPMI-8226 leukemia and in the test with SF-539 CNS was > 100 µM each time. The TGI in the test with SK-MEL-2 melanoma, in the test with SR leukemia and with UACC-257 melanoma was > 100 µM each time.
Turning to `CC(=O)OC12c3ccccc3C1CCCCCC21OCCCO1` (stereo not given), the TGI in the test with HCT-15 colon, in the test on IGROV1 ovarian, with MOLT-4 leukemia, in the test on OVCAR-3 ovarian, in the test with RPMI-8226 leukemia and with SF-539 CNS was > 100 µM throughout. The TGI in the test on SK-MEL-2 melanoma and in the test on SR leukemia was > 100 µM each time.
With `O=C1/C(=C/c2ccccc2Cl)N=C(c2ccccc2)N1Cc1ccco1`, the GI50 in the test with HCT-15 colon is 25.5 µM; in the test on MCF7 breast it was 18.3 µM; in the test with MOLT-4 leukemia, 13.3 µM; in the test with OVCAR-3 ovarian, 26.9 µM; in the test with RPMI-8226 leukemia it was 25.4 µM; with SF-539 CNS, 63.8 µM. In addition, the GI50 is 28.1 µM in the test on SK-MEL-2 melanoma, 26.2 µM with SR leukemia and 21.2 µM with UACC-257 melanoma. Also, the TGI in the test on HCT-15 colon, in the test with MCF7 breast, in the test on MOLT-4 leukemia, in the test on OVCAR-3 ovarian, in the test on RPMI-8226 leukemia and in the test on SF-539 CNS was > 100 µM each time. Further, the results for the TGI in the test on SK-MEL-2 melanoma, with SR leukemia and with UACC-257 melanoma were 55.1 µM, > 100 µM and 39.8 µM, respectively.
Turning to `COC(=O)CCC(=O)c1c(C)[nH]c(/C=C2\N=C(c3ccc[nH]3)C=C2OC)c1C`, the GI50 in the test with HCT-15 colon is 0.292 µM; in the test on IGROV1 ovarian it was 0.365 µM; in the test with MCF7 breast, 0.567 µM; in the test on MOLT-4 leukemia, 0.405 µM; in the test on OVCAR-3 ovarian it was 0.353 µM; in the test on RPMI-8226 leukemia, 0.36 µM. Further, the values for the GI50 in the test on SF-539 CNS, with SK-MEL-2 melanoma and in the test on UACC-257 melanoma were 1.18 µM, 0.349 µM and 2.27 µM, respectively. For the same compound, the TGI was determined as 1.89 µM in the test on HCT-15 colon; 1.6 µM in the test with IGROV1 ovarian; 2.03 µM with MCF7 breast; 1.85 µM in the test with MOLT-4 leukemia; 1.7 µM in the test on OVCAR-3 ovarian; 1.87 µM in the test on RPMI-8226 leukemia. Also, the TGI is 3.03 µM in the test on SF-539 CNS, 1.74 µM with SK-MEL-2 melanoma and 6.37 µM in the test on UACC-257 melanoma.
On to `CCCN(CCC)c1ccc(CO)c(C)c1`, for which the GI50 was 51.9 µM in the test on HCT-15 colon; 57 µM in the test with IGROV1 ovarian; > 100 µM in the test with MCF7 breast; 26.8 µM with MOLT-4 leukemia; 23 µM with OVCAR-3 ovarian; 18.4 µM with RPMI-8226 leukemia. Also, the GI50 in the test on SF-539 CNS was > 100 µM; with SK-MEL-2 melanoma it was 25.7 µM; in the test with UACC-257 melanoma, 11.6 µM. Moreover, the TGI in the test with HCT-15 colon was > 100 µM; in the test with IGROV1 ovarian it was > 100 µM; in the test on MCF7 breast, > 100 µM; in the test on MOLT-4 leukemia it was > 100 µM; in the test on OVCAR-3 ovarian it was > 100 µM; in the test on RPMI-8226 leukemia, 50 µM. Also, the concentration for total growth inhibition (TGI) with SF-539 CNS is > 100 µM; in the test on SK-MEL-2 melanoma it was 78 µM; with UACC-257 melanoma it was 67.3 µM.
On to `ClCCN(CCCl)c1ccc(-n2cnc3c(Cl)ncnc32)cc1`, for which the GI50 with HCT-15 colon was 1.79 µM; with MCF7 breast, 3.68 µM; in the test with MOLT-4 leukemia it was 2.99 µM; in the test with OVCAR-3 ovarian it was 1.77 µM; with RPMI-8226 leukemia it was 9.69 µM; in the test with SF-539 CNS, 5.23 µM. Further, the GI50 is 14 µM in the test with SK-MEL-2 melanoma, 2.06 µM with SR leukemia and 2.24 µM in the test with UACC-257 melanoma. Further, the TGI with HCT-15 colon is 3.65 µM; with MCF7 breast it was 15.1 µM; with MOLT-4 leukemia, 7.84 µM; in the test with OVCAR-3 ovarian, 3.15 µM; with RPMI-8226 leukemia, 59.1 µM; in the test with SF-539 CNS it was 19 µM. The TGI stood at 27.6 µM with SK-MEL-2 melanoma, 6.55 µM with SR leukemia and 5.16 µM with UACC-257 melanoma.
Consider `CCCNCc1nc2ccc(Br)cc2c(=O)n1CCC`, for which the TGI in the test with HCT-15 colon was 27.4 µM; in the test with IGROV1 ovarian it was 29.7 µM; in the test with MOLT-4 leukemia, > 100 µM; in the test on OVCAR-3 ovarian, 32.5 µM; in the test on RPMI-8226 leukemia, > 100 µM; in the test with SF-539 CNS, 29.5 µM. The total growth inhibition concentration (TGI) is 25.2 µM in the test on SK-MEL-2 melanoma, > 100 µM in the test on SR leukemia and 26 µM in the test with UACC-257 melanoma.
On to `CCOC(=O)/N=C(\N)SCc1ccccc1`, for which the TGI with HCT-15 colon, in the test on IGROV1 ovarian, in the test on MOLT-4 leukemia, in the test with RPMI-8226 leukemia, in the test with SF-539 CNS and in the test with SK-MEL-2 melanoma was > 100 µM each time. Further, the TGI in the test with SR leukemia and with UACC-257 melanoma was > 100 µM throughout.

One may read the TGI as the concentration giving total growth inhibition. Low values mean greater sensitivity of the cells, high ones lower sensitivity of the cells. Usually GI50 stands for the concentration giving 50% growth inhibition.
